{"source": "patent US20120052064A1", "about": "“ANTI-HGF ANTIBODY COMBINATIONAL CANCER THERAPIES” (priority 2009, published 2012)", "key": {"[1]": {"tested_on": "KP-4 human pancreatic tumor xenograft", "details": "40 mg/kg", "protocol": "Sunitinib was administered orally and once-daily at a dose of 40 mg/kg on days 11-25 as its 0.5% methyl cellulose suspension. Administration volume was 10 mL/kg."}, "[2]": {"target": "c-Met receptor (Homo sapiens, UniProt P08581)", "sequence (P08581 25-1390)": "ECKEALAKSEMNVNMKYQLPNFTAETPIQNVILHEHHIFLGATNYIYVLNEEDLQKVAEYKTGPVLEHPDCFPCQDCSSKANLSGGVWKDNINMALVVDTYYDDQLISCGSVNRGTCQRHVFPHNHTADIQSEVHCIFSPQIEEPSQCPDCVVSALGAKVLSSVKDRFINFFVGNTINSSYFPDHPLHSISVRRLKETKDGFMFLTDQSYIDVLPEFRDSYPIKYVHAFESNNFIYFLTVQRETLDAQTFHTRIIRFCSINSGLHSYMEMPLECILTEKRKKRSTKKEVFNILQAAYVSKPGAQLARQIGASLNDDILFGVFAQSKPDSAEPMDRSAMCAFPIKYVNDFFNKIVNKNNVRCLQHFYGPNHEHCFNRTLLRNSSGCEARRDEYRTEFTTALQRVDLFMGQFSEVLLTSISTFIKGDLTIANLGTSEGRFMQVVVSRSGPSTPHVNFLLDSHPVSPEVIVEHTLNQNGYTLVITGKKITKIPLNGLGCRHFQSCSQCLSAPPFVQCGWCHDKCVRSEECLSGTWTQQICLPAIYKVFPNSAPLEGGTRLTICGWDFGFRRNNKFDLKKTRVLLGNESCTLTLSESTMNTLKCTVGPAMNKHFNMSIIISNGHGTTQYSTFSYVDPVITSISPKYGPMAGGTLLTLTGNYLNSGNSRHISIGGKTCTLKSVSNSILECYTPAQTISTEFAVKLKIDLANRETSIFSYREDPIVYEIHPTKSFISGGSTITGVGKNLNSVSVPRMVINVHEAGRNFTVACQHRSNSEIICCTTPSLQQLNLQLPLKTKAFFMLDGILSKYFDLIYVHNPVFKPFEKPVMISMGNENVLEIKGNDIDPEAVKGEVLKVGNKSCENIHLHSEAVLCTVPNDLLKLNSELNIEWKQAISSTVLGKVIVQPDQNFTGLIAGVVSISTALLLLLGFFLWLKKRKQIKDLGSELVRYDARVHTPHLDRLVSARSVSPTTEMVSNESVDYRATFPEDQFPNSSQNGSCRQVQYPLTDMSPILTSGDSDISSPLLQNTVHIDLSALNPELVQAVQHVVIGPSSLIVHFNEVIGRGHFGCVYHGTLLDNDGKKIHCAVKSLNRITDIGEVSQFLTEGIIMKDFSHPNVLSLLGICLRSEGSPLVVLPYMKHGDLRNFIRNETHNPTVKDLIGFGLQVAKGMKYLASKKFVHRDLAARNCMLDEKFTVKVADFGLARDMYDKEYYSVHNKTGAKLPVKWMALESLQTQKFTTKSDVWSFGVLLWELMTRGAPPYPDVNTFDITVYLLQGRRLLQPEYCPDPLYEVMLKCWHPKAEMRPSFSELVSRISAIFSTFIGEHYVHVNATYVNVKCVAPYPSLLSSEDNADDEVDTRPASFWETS", "details": "read-out: Kd, high affinity binding site; cited from earlier work"}, "[3]": {"target": "heparin sulfate proteoglycans (HSPG)", "details": "HSPG on the cell surface and extracellular matrix; read-out: Kd, low affinity binding site; cited from earlier work"}, "[4]": {"tested_on": "IM95m human gastric tumor xenograft", "test": "Human gastric cancer IM95m tumor xenograft model", "assay_type": "in vivo, mouse", "details": "SCID mice, s.c. IM95m; day 53 to day 81; HuL2G7 10 mg/kg i.v. once-weekly, erlotinib 25 mg/kg p.o. once-daily days 53-80, or both", "procedure": "FIG. 1. (A) Combination effects of humanized L2G7 (HuL2G7) and erlotinib in gastric cancer (tumor) IM95m xenograft model. Treatment was started from 53 days after inoculation. Mice treated with relevant vehicles (i.v. and/or p.o.), HuL2G7 (10 mg/kg/week, i.v., on days 53, 60, 67, and 74), erlotinib (25 mg/kg, p.o., qd×28 doses) or the combined regimen for 28 days. Data represents mean±SD (n=6). *p≦0.025 by one-tailed Dunnett's test (v.s. vehicle). (B) Comparison of differential tumor volumes of the mice group treated with HuL2G7, erlotinib, and a combination of the two. Tumor volume of each mouse on days 53 was subtracted from the volume on days 81. Data represents mean±SD (n=6). # p≦0.05 by Wilcoxon signed-rank test (v.s. combo)."}}}
{"compound": "CCN(CC)CCNC(=O)c1c(C)[nH]c(/C=C2\\C(=O)Nc3ccc(F)cc32)c1C", "note": "[sunitinib]", "values": [{"measurement": "T/C (%) = ΔT/ΔC×100, change in tumor volume", "setting": "[1]", "result": 48, "unit": "%"}]}
{"compound": "HGF: multifunctional heterodimeric polypeptide, 102 kDa, ligand of c-Met", "values": [{"measurement": "Kd", "setting": "[2]", "result": 0.2, "unit": "nM"}, {"measurement": "Kd", "setting": "[3]", "result": 1, "unit": "nM"}]}
{"compound": "C#Cc1cccc(Nc2ncnc3cc(OCCOC)c(OCCOC)cc23)c1", "note": "[erlotinib]", "values": [{"measurement": "T/C (%) = ΔT/ΔC×100, change in tumor volume", "setting": "[4]", "result": 45, "unit": "%"}]}
